The term AC50 denotes the concentration at which the activity in the assay is half-maximal.

Results filed as inconclusive are left out. Calls of active or inactive are those of the source.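 The calls were made as follows: active = compounds lowering viability whose fitted half-maximal concentration is at most tenfold the top tested dose; inconclusive = flat curve with viability loss of 30 to 70%, or bad fit; inactive = the rest.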

One test relates to BJeH fibroblasts viability, Alamar Blue fluorescence, 48 h. Put plainly: viability loss in BJeH fibroblasts, dose response, counter-screen for Ras selective lethality project, cell-based, plate reader, dry powder, set 4 (AID 540316).
Conditions: not given
(In general: Counterscreens check selectivity or assay interference.)
In the case of `O=C(NCCNC(c1ccccc1)c1ccccc1)c1ccc([N+](=O)[O-])o1`, the AC50 is 5.31 µM.
Turning to `COC(=O)c1ccc([C@@H]2c3[nH]c4ccccc4c3C[C@@H](C(=O)OC)N2C(=O)CCl)cc1`, the AC50 is 2.68 µM.
The same measure, in the same setting: the same measure for `COc1ccc(C(c2ccc(OC)cc2)N2CCN(C(=O)c3ccc([N+](=O)[O-])o3)CC2)cc1`: 6.76 µM.
In the case of `CCOc1ccccc1-n1c(C(C)N2CCN(C(=O)COc3ccc(Cl)cc3)CC2)nc2ccccc2c1=O` (stereo not given), the AC50 is 7.93 µM.
For the compound `O=C(c1ccc([N+](=O)[O-])o1)N1CCN(C(c2ccc(F)cc2)c2ccc(F)cc2)CC1`, the AC50 was 14.2 µM.

Test system in another test: not listed separately
The description is as above. The following applies: BJeH fibroblasts viability, Alamar Blue fluorescence, 48 h; at 48 µM (top of the series). Background: Alamar Blue is a resazurin reagent that responds to reducing activity.
With `Cc1onc(CC(=O)N2CCN(C(c3ccc(F)cc3)c3ccc(F)cc3)CC2)c1[N+](=O)[O-]`, the activity change, negative = fewer viable cells was -13.5% (inactive).
`Cc1onc(C(=O)N2CCN(C(c3ccccc3)c3ccccc3)CC2)c1[N+](=O)[O-]`: the activity change, negative = fewer viable cells is -11.7% (inactive).
In the case of `Cc1onc(C(=O)N2CCN(Cc3ccccc3)CC2)c1[N+](=O)[O-]`, the activity change, negative = fewer viable cells was -0.245% (inactive).
Same read-out and setting: the same measure for `Cc1onc(C(=O)NCCNC(c2ccccc2)c2ccccc2)c1[N+](=O)[O-]`: -11.9% (inactive).
For the compound `Cc1onc(C(=O)N2CCCN(C(c3ccccc3)c3ccccc3)CC2)c1[N+](=O)[O-]`, the activity change, negative = fewer viable cells is -10.7% (inactive).

For the origin of these results see PubChem BioAssay AID540316 (Broad Institute, 2011).
